The values that follow come from patent US10208000B2, “Eis inhibitors” (priority 2015, dated 2019).

For this assay, the system named is K204 Mtb. It is filed as cell-based, Mycobacterium tuberculosis.

With `CC1=C(c2ccc(C)cc2)S(=O)(=O)N=C1NCCN1CCOCC1` [Compound 35e], the “overcoming resistance to KAN in Mtb K204 (in words)” value (from here on “overcoming resistance to KAN”) was “did not overcome resistance to KAN”.
Consider `CCN1CCN(CCNC2=NS(=O)(=O)C(c3ccc(OC)cc3)=C2C)CC1` [Compound 37d], for which the “overcoming resistance to KAN” value was “did not overcome resistance to KAN”.
As for `CC1=C(c2ccc(F)cc2)S(=O)(=O)N=C1NCc1ccco1` [Compound 87b], the entry is “did not overcome resistance to KAN”.
For the molecule `CC1=C(c2ccc(F)cc2)S(=O)(=O)N=C1NCc1ccccc1` [Compound 89b], the “overcoming resistance to KAN” value is given as “did not overcome resistance to KAN”.
As to `CC1=C(c2ccc(C)c(C)c2)S(=O)(=O)N=C1NCC(=O)NCc1ccc2c(c1)OCO2` [Compound 115i], the “overcoming resistance to KAN” value was “did not overcome resistance to KAN”.
Regarding `CCCNC1=NS(=O)(=O)C(c2ccc(F)cc2)=C1C` [Compound 139b], the “overcoming resistance to KAN” value was “did not overcome resistance to KAN”.
Turning to `CCCNC1=NS(=O)(=O)C(c2ccc(C)cc2)=C1C` [Compound 139e], the “overcoming resistance to KAN” value is recorded as “did not overcome resistance to KAN”.
For `CCCNC1=NS(=O)(=O)C(c2ccc(C)c(C)c2)=C1C` [Compound 139i], the “overcoming resistance to KAN” value is listed as “did not overcome resistance to KAN”.
